Earlier results in paper PMC11761228, “Cinnamic Acid Compounds (p-Coumaric, Ferulic, and p-Methoxycinnamic Acid) as Effective Antibacterial Agents Against Colistin-Resistant Acinetobacter baumannii” (Antibiotics, 2025).
In brackets after ≈: the same amount, converted by molar mass.

Experiments:
A. baumannii strains = details: three A. baumannii isolates; cited from earlier work
Shigella dysenteriae = details: ref 35 (Lou et al., 2012); cited from earlier work
Salmonella typhimurium = test system: Salmonella typhimurium; design: method as in ref 35 (Lou et al., 2012); details: ref 35 (Lou et al., 2012); cited from earlier work
[1] = test system: HUVEC-originated ECV304 cells; details: ref 72 (Kong et al.); cited from earlier work
Micrococcus luteus = test system: Micrococcus luteus; design: method as in ref 29 (Nakazono et al., 2006); details: ref 29 (Nakazono et al., 2006); cited from earlier work
Salmonella enteritidis = test system: Salmonella enteritidis; design: method as in ref 29 (Nakazono et al., 2006); details: ref 29 (Nakazono et al., 2006); cited from earlier work

In the case of `COc1cc(/C=C/C(=O)O)ccc1O` [FA, ferulic acid], the MIC (A. baumannii strains) is listed as 12.5 µg/mL (≈ 64.4 µM).
For `O=C(O)/C=C/c1ccc(O)cc1` [p-CA, p-coumaric acid], the MIC (Shigella dysenteriae) is listed as 20 µg/mL (≈ 122 µM), the MIC (Salmonella typhimurium) is listed as 20 µg/mL (≈ 122 µM) and the “Concentration shown to induce cytotoxicity” value [1] is listed as 5000 µM. The “Concentrations with no significant effects on the cell viability” value [1] was at most 2500 µM.
For `COc1ccc(C=CC(=O)O)cc1` [p-MCA, p-methoxycinnamic acid], the MIC (Micrococcus luteus) is given as 80 µg/mL (≈ 449 µM) and the MIC (Salmonella enteritidis) is given as 60 µg/mL (≈ 337 µM).
